{"source": "ChEMBL document CHEMBL3885861", "about": "“Open TG-GATES”", "organism": "Rattus norvegicus", "assay": "Open TG-GATES - Regimen: Daily Repeat", "type": "toxicity, organism-based, Sprague-Dawley", "design": "regimen Daily Repeat, gender Male, age 6 weeks", "details": "in vivo, po, 0 mg/kg, route gavage, dose level Control; for APTT / Bas / Eos / Fbg / Hb / Ht / Lym / MCH / MCHC / MCV / Mono / Neu / PT / Plat / RBC / Ret / WBC: tissue Blood", "key": {"[1]": {"details": "72 h, tissue Kidney, time 3 day"}, "[2]": {"details": "72 h, tissue Plasma, time 3 day"}}, "data": [{"smiles": "CN/C(=N/CCSCc1nc[nH]c1C)NC#N", "note": "[CIMETIDINE]", "values": [{"measurement": "TERMINAL_BW", "setting": "72 h, time 3 day", "value": 226.2, "unit": "g"}, {"measurement": "APTT", "setting": "72 h, time 3 day", "value": 20.3, "unit": "s"}, {"measurement": "Bas", "setting": "72 h, time 3 day", "value": 0.4, "unit": "%"}, {"measurement": "Eos", "setting": "72 h, time 3 day", "value": 0.6, "unit": "%"}, {"measurement": "Fbg", "setting": "72 h, time 3 day", "value": 220.2, "unit": "mg/dL"}, {"measurement": "Hb", "setting": "72 h, time 3 day", "value": 13.5, "unit": "g/dL"}, {"measurement": "Ht", "setting": "72 h, time 3 day", "value": 40.5, "unit": "%"}, {"measurement": "Lym", "setting": "72 h, time 3 day", "value": 84.6, "unit": "%"}, {"measurement": "MCH", "setting": "72 h, time 3 day", "value": 21, "unit": "pg"}, {"measurement": "MCHC", "setting": "72 h, time 3 day", "value": 33.4, "unit": "%"}, {"measurement": "MCV", "setting": "72 h, time 3 day", "value": 63.1, "unit": "fL"}, {"measurement": "Mono", "setting": "72 h, time 3 day", "value": 2.2, "unit": "%"}, {"measurement": "Neu", "setting": "72 h, time 3 day", "value": 11.2, "unit": "%"}, {"measurement": "PT", "setting": "72 h, time 3 day", "value": 12.7, "unit": "s"}, {"measurement": "Plat", "setting": "72 h, time 3 day", "value": 132.2, "unit": "x10_4/uL"}, {"measurement": "RBC", "setting": "72 h, time 3 day", "value": 642.2, "unit": "x10_4/ul"}, {"measurement": "Ret", "setting": "72 h, time 3 day", "value": 6.3, "unit": "%"}, {"measurement": "WBC", "setting": "72 h, time 3 day", "value": 102.1, "unit": "x10_2/uL"}, {"measurement": "KIDNEY_L", "setting": "[1]", "value": 1, "unit": "g"}, {"measurement": "KIDNEY_R", "setting": "[1]", "value": 1, "unit": "g"}, {"measurement": "KIDNEY_TOTAL", "setting": "[1]", "value": 2, "unit": "g"}, {"measurement": "LIVER", "setting": "72 h, tissue Liver, time 3 day", "value": 10.7, "unit": "g"}, {"measurement": "A/G", "setting": "[2]", "value": 1.7}, {"measurement": "ALP", "setting": "[2]", "value": 1069.6, "unit": "IU/L"}, {"measurement": "ALT", "setting": "[2]", "value": 36.6, "unit": "IU/L"}, {"measurement": "AST", "setting": "[2]", "value": 71, "unit": "IU/L"}, {"measurement": "BUN", "setting": "[2]", "value": 14.4, "unit": "mg/dL"}, {"measurement": "CRE", "setting": "[2]", "value": 0.4, "unit": "mg/dL"}, {"measurement": "Ca", "setting": "[2]", "value": 10.7, "unit": "mg/dL"}, {"measurement": "Cl", "setting": "[2]", "value": 102.8, "unit": "meq/L"}, {"measurement": "DBIL", "setting": "[2]", "value": 0.1, "unit": "mg/dL"}, {"measurement": "GLC", "setting": "[2]", "value": 198.2, "unit": "mg/dL"}, {"measurement": "IP", "setting": "[2]", "value": 7.1, "unit": "mg/dL"}, {"measurement": "K", "setting": "[2]", "value": 3.7, "unit": "meq/L"}, {"measurement": "LDH", "setting": "[2]", "value": 150, "unit": "IU/L"}, {"measurement": "Na", "setting": "[2]", "value": 141.2, "unit": "meq/L"}, {"measurement": "PL", "setting": "[2]", "value": 158, "unit": "mg/dL"}, {"measurement": "RALB", "setting": "[2]", "value": 3.5, "unit": "g/dL"}, {"measurement": "TBIL", "setting": "[2]", "value": 0.2, "unit": "mg/dL"}, {"measurement": "TC", "setting": "[2]", "value": 75.8, "unit": "mg/dL"}, {"measurement": "TG", "setting": "[2]", "value": 103, "unit": "mg/dL"}, {"measurement": "TP", "setting": "[2]", "value": 5.7, "unit": "g/dL"}, {"measurement": "gamma-GTP", "setting": "[2]", "value": 1, "unit": "IU/L"}, {"measurement": "TERMINAL_BW", "setting": "[…], time 7 day", "value": 261.3, "unit": "g"}, {"measurement": "TERMINAL_BW", "setting": "[…], time 14 day", "value": 315.1, "unit": "g"}, {"measurement": "TERMINAL_BW", "setting": "[…], time 28 day", "value": 384.7, "unit": "g"}, {"measurement": "APTT", "setting": "[…], time 7 day", "value": 18.7, "unit": "s"}, {"measurement": "Bas", "setting": "[…], time 7 day", "value": 0.2, "unit": "%"}, {"measurement": "Eos", "setting": "[…], time 7 day", "value": 0.6, "unit": "%"}, {"measurement": "Fbg", "setting": "[…], time 7 day", "value": 228, "unit": "mg/dL"}, {"measurement": "Hb", "setting": "[…], time 7 day", "value": 14, "unit": "g/dL"}, {"measurement": "Ht", "setting": "[…], time 7 day", "value": 41.6, "unit": "%"}, {"measurement": "Lym", "setting": "[…], time 7 day", "value": 80, "unit": "%"}, {"measurement": "MCH", "setting": "[…], time 7 day", "value": 21.5, "unit": "pg"}, {"measurement": "MCHC", "setting": "[…], time 7 day", "value": 33.5, "unit": "%"}, {"measurement": "MCV", "setting": "[…], time 7 day", "value": 64.2, "unit": "fL"}, {"measurement": "Mono", "setting": "[…], time 7 day", "value": 2.2, "unit": "%"}, {"measurement": "Neu", "setting": "[…], time 7 day", "value": 15, "unit": "%"}, {"measurement": "PT", "setting": "[…], time 7 day", "value": 12.1, "unit": "s"}, {"measurement": "Plat", "setting": "[…], time 7 day", "value": 129.9, "unit": "x10_4/uL"}, {"measurement": "RBC", "setting": "[…], time 7 day", "value": 649, "unit": "x10_4/ul"}, {"measurement": "Ret", "setting": "[…], time 7 day", "value": 5.8, "unit": "%"}, {"measurement": "WBC", "setting": "[…], time 7 day", "value": 117.4, "unit": "x10_2/uL"}, {"measurement": "APTT", "setting": "[…], time 14 day", "value": 18.6, "unit": "s"}, {"measurement": "Bas", "setting": "[…], time 14 day", "value": 0, "unit": "%"}, {"measurement": "Eos", "setting": "[…], time 14 day", "value": 0.8, "unit": "%"}, {"measurement": "Fbg", "setting": "[…], time 14 day", "value": 218.6, "unit": "mg/dL"}, {"measurement": "Hb", "setting": "[…], time 14 day", "value": 14.3, "unit": "g/dL"}, {"measurement": "Ht", "setting": "[…], time 14 day", "value": 43.5, "unit": "%"}, {"measurement": "Lym", "setting": "[…], time 14 day", "value": 79.2, "unit": "%"}, {"measurement": "MCH", "setting": "[…], time 14 day", "value": 20, "unit": "pg"}, {"measurement": "MCHC", "setting": "[…], time 14 day", "value": 33, "unit": "%"}, {"measurement": "MCV", "setting": "[…], time 14 day", "value": 60.7, "unit": "fL"}, {"measurement": "Mono", "setting": "[…], time 14 day", "value": 2.8, "unit": "%"}, {"measurement": "Neu", "setting": "[…], time 14 day", "value": 16.8, "unit": "%"}, {"measurement": "PT", "setting": "[…], time 14 day", "value": 12.1, "unit": "s"}, {"measurement": "Plat", "setting": "[…], time 14 day", "value": 129.1, "unit": "x10_4/uL"}, {"measurement": "RBC", "setting": "[…], time 14 day", "value": 717.8, "unit": "x10_4/ul"}, {"measurement": "Ret", "setting": "[…], time 14 day", "value": 4.6, "unit": "%"}, {"measurement": "WBC", "setting": "[…], time 14 day", "value": 120.6, "unit": "x10_2/uL"}, {"measurement": "APTT", "setting": "[…], time 28 day", "value": 20.4, "unit": "s"}, {"measurement": "Bas", "setting": "[…], time 28 day", "value": 0, "unit": "%"}, {"measurement": "Eos", "setting": "[…], time 28 day", "value": 1.2, "unit": "%"}, {"measurement": "Fbg", "setting": "[…], time 28 day", "value": 205.8, "unit": "mg/dL"}, {"measurement": "Hb", "setting": "[…], time 28 day", "value": 15.1, "unit": "g/dL"}, {"measurement": "Ht", "setting": "[…], time 28 day", "value": 44.2, "unit": "%"}]}]}
